From US20110082130A1 (LIGAND PHARMACEUTICALS, INC., priority 2006, published 2011)

Each molecule was assayed against T1, chimeric human H3 receptor (Homo sapiens, UniProt Q9Y5N1) (assay: Chimeric human H3 receptor GTP binding assay (agonist-stimulated GTP-gamma35S binding, Example 7)). Settings: Table II "Ki", symbol *; assay of Example 7.
T1 construct: made in house; host or cells: Sf9 insect cells (baculovirus); P2 membrane preparation
Format: biochemical
Outline: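 Sf9 membranes co-expressing chimeric human H3 receptor and heterotrimeric G-protein, 35 μg/tube, in pH 7.4 Tris buffer with 10 μM GDP. Test compounds (10^−10–10^−6 M) competed against 1 μM histamine, […] GTP-gamma35S, 60 min at room temperature. Filter-bound radioactivity counted; IC50 converted to Ki by Cheng-Prusoff. Agonism/inverse agonism tested without histamine (EC50).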

T1 sequence (Q9Y5N1 with tags, fused parts or gaps): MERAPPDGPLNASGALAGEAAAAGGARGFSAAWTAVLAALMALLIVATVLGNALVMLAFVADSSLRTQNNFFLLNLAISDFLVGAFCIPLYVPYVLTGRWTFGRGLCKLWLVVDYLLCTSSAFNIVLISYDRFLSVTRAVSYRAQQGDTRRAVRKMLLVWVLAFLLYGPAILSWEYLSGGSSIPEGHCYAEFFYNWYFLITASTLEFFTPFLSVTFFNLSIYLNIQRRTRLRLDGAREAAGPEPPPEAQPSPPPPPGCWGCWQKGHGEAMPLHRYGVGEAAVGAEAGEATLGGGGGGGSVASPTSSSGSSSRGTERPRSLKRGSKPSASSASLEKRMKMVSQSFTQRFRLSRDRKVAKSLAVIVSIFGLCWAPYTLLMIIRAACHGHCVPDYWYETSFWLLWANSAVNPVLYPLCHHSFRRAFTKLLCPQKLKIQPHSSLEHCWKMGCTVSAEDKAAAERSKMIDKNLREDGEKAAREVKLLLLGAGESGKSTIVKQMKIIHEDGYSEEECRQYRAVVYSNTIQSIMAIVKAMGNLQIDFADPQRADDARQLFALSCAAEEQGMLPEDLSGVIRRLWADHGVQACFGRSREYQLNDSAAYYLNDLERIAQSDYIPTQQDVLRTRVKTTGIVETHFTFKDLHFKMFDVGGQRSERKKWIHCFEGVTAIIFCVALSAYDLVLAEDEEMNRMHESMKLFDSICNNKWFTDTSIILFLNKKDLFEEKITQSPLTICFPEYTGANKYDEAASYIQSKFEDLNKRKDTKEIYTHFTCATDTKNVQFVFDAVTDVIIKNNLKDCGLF

| Compound | Ki [nM] |
| --- | --- |
| COc1cc(-c2ccc3c(c2)CCN(CC(=O)N2CCN(C4CCC4)CC2)C3)cc(OC)c1OC [Compound 516, 2-[2-(4-cyclobutylpiperazin-1-yl)-2-oxoethyl]-6-(3,4,5-trimethoxyphenyl)-1,2,3,4-tetrahydroisoquinoline] | < 1000 |
| COc1ccc(-c2ccc3c(c2)CCN(CC(=O)N2CCN(C4CCCC4)CC2)C3)cc1F [Compound 503, 2-[2-(4-cyclopentylpiperazin-1-yl)-2-oxoethyl]-6-(3-fluoro-4-methoxyphenyl)-1,2,3,4-tetrahydroisoquinoline] | < 1000 |

Same assay, conditions: Table II; "*" = Ki in assay of Example 7 less than 1 micromolar

| Compound | Ki [nM] |
| --- | --- |
| O=C(CN1CCc2nn(-c3ccc(C4CC4)nn3)cc2C1)N1CCN(C2CCC2)CC1 [Compound 260, 5-[2-(4-cyclobutylpiperazin-1-yl)-2-oxoethyl]-2-(6-cyclopropylpyridazin-3-yl)-4,5,6,7-tetrahydro-2H-pyrazolo[4,3-c]pyridine] | < 1000 |
| O=C(CN1CCc2cc(-n3cccnc3=O)ccc2C1)N1CCN(C2CCC2)CC1 [Compound 213, 1-{2-[2-(4-cyclobutylpiperazin-1-yl)-2-oxoethyl]-1,2,3,4-tetrahydroisoquinolin-6-yl}pyrimidin-2(1H)-one] | < 1000 |

Same assay, conditions: assay of Example 7; "*" in Ki of Table II

| Compound | Ki [nM] |
| --- | --- |
| O=C(CN1CCc2nc(-c3ccc4c(c3)OCCO4)sc2C1)N1CCN(C2CCC2)CC1 [Compound 332] | < 1000 |

The molecules below were run against T1, chimeric human H3 receptor (assay: Chimeric human H3 receptor screening GTP binding assay (inhibition of histamine-stimulated GTP-gamma35S binding, Example 8)). Settings: 4 μM of the compound, 1 μM histamine, "†" in Ki of Table II, read-out: percent inhibition of the signal obtained with 1 μM histamine.
Format: biochemical
Procedure: This Example illustrates a representative screening assay for evaluating inhibition of histamine-stimulated GTP-gamma^35S binding. Such GTP binding activity can be used to identify H3 antagonists and inverse agonists. A compound analyzed in this assay is referred to herein as a “test compound,” and the initial identification of antagonists and inverse agonists is performed using a test compound concentration of 4 μM.
Four independent baculoviral stocks (one directing the expression of the chimeric human H3 receptor and three directing the expression of each of the three subunits of a heterotrimeric G-protein) are used to infect a culture of Sf9 cells as described above. P2 membranes are prepared as described above, and are resuspended by Dounce homogenization (tight pestle) in GTP binding assay buffer (50 mM Tris pH 7.4, 120 mM NaCl, 5 mM MgCl2, 2 mM EGTA, 1 mg/ml BSA, 0.2 mg/ml bacitracin, 0.02 mg/ml aprotinin, 0.01 mg/ml saponin, 10 μM GDP) and added to assay tubes at a concentration of 35 μg protein/reaction tube. Non-radiolabeled test compounds are added to separate reactions at a concentration of 4 μM along with 1 μM histamine (agonist). Reactions are initiated by the addition of […] GTP-gamma^35S with a final assay volume of 0.20 ml.
After a 60-min incubation at room temperature, reactions are terminated by vacuum filtration over GF/C filters (pre-soaked in 50 mM Tris pH 7.4, 120 mM NaCl plus 0.1% BSA) followed by washing with ice-cold buffer (50 mM Tris pH 7.4, 120 mM NaCl). The amount of receptor-bound (and thereby membrane-bound) GTP-gamma^35S is determined by measuring the bound radioactivity, preferably by liquid scintillation spectrometry of the washed filters. Non-specific binding is determined using 10 uM GTP-gammaS and typically represents less than 5 percent of total binding. After subtraction of non-specific binding, data is expressed as percent inhibition of 1 μM histamine signal.
Neutral antagonists are those test compounds that reduce the histamine-stimulated GTP binding activity towards, but not below, baseline levels. In contrast, in the absence of added histamine, inverse agonists reduce the GTP binding activity of the receptor-containing membranes below baseline. Any test compound that elevates GTP binding activity above baseline in the absence of added histamine in this assay is defined as having agonist activity.

| Compound | inhibition at 4 µM [%] |
| --- | --- |
| O=C(CN1CCc2cc(-c3cccc4c3oc3ccccc34)ccc2C1)N1CCN(C2CCC2)CC1 [Compound 388, 2-[2-(4-cyclobutylpiperazin-1-yl)-2-oxoethyl]-6-dibenzo[b,d]furan-4-yl-1,2,3,4-tetrahydroisoquinoline] | ≥ 90 |
| Cc1ccc(-c2ccc3c(c2)CCN(CC(=O)N2CCN(C4CCCCC4)CC2)C3)c(F)c1 [Compound 422, 2-[2-(4-cyclohexylpiperazin-1-yl)-2-oxoethyl]-6-(2-fluoro-4-methylphenyl)-1,2,3,4-tetrahydroisoquinoline] | ≥ 90 |
| O=C(CN1CCc2cc(-c3ccc4ccccc4c3)ccc2C1)N1CCN(C2CCCCC2)CC1 [Compound 418, 2-[2-(4-cyclohexylpiperazin-1-yl)-2-oxoethyl]-6-(2-naphthyl)-1,2,3,4-tetrahydroisoquinoline] | ≥ 90 |
| Cc1ccc(-c2ccc3c(c2)CCN(CC(=O)N2CCN(C4CCCC4)CC2)C3)cc1 [Compound 436, 2-[2-(4-cyclopentylpiperazin-1-yl)-2-oxoethyl]-6-(4-methylphenyl)-1,2,3,4-tetrahydroisoquinoline] | ≥ 90 |
| CCc1cccc(-c2ccc3c(c2)CCN(CC(=O)N2CCN(C4CCCCC4)CC2)C3)c1 [Compound 469, 2-[2-(4-cyclohexylpiperazin-1-yl)-2-oxoethyl]-6-(3-ethylphenyl)-1,2,3,4-tetrahydroisoquinoline] | ≥ 90 |
| Cc1cc(C)cc(-c2ccc3c(c2)CCN(CC(=O)N2CCN(C4CCC4)CC2)C3)c1 [Compound 455, 2-[2-(4-cyclobutylpiperazin-1-yl)-2-oxoethyl]-6-(3,5-dimethylphenyl)-1,2,3,4-tetrahydroisoquinoline] | ≥ 90 |
| CCCCc1ccc(-c2ccc3c(c2)CCN(CC(=O)N2CCN(C(C)C)CC2)C3)cc1 [Compound 454, 6-(4-butylphenyl)-2-[2-(4-isopropylpiperazin-1-yl)-2-oxoethyl]-1,2,3,4-tetrahydroisoquinoline] | ≥ 90 |
| O=C(CN1CCc2cc(-c3ccc(Cl)cc3)ccc2C1)N1CCN(C2CCC2)CC1 [Compound 404, 6-(4-chlorophenyl)-2-[2-(4-cyclobutylpiperazin-1-yl)-2-oxoethyl]-1,2,3,4-tetrahydroisoquinoline] | ≥ 90 |
| O=C(CN1CCc2cc(-c3ccccc3)ccc2C1)N1CCN(C2CCC2)CC1 [Compound 398, 2-[2-(4-cyclobutylpiperazin-1-yl)-2-oxoethyl]-6-phenyl-1,2,3,4-tetrahydroisoquinoline] | ≥ 90 |

Same assay, conditions: Table II "Ki", symbol †, 4 μM of the compound, 1 μM histamine, read-out: percent inhibition of the signal obtained with 1 μM histamine

| Compound | inhibition at 4 µM [%] |
| --- | --- |
| COc1ccc(-c2ccc3c(c2)CCN(CC(=O)N2CCN(C(C)C)CC2)C3)cc1F [Compound 505, 6-(3-fluoro-4-methoxyphenyl)-2-[2-(4-isopropylpiperazin-1-yl)-2-oxoethyl]-1,2,3,4-tetrahydroisoquinoline] | ≥ 90 |
| O=C(CN1CCc2cc(-c3cccc(F)c3F)ccc2C1)N1CCN(C2CCCC2)CC1 [Compound 600, 2-[2-(4-cyclopentylpiperazin-1-yl)-2-oxoethyl]-6-(2,3-difluorophenyl)-1,2,3,4-tetrahydroisoquinoline] | ≥ 90 |
| O=C(CN1CCc2cc(-c3cccc(OC(F)(F)F)c3)ccc2C1)N1CCN(C2CCC2)CC1 [Compound 490, 2-[2-(4-cyclobutylpiperazin-1-yl)-2-oxoethyl]-6-[3-(trifluoromethoxy)phenyl]-1,2,3,4-tetrahydroisoquinoline] | ≥ 90 |
| CCOc1ccc(-c2ccc3c(c2)CCN(CC(=O)N2CCN(C4CCCCC4)CC2)C3)cc1 [Compound 530, 2-[2-(4-cyclohexylpiperazin-1-yl)-2-oxoethyl]-6-(4-ethoxyphenyl)-1,2,3,4-tetrahydroisoquinoline] | ≥ 90 |
| COc1cc(-c2ccc3c(c2)CCN(CC(=O)N2CCN(C(C)C)CC2)C3)cc(OC)c1OC [Compound 519, 2-[2-(4-isopropylpiperazin-1-yl)-2-oxoethyl]-6-(3,4,5-trimethoxyphenyl)-1,2,3,4-tetrahydroisoquinoline] | ≥ 90 |
| COc1ccccc1-c1ccc2c(c1)CCN(CC(=O)N1CCN(C3CCCC3)CC1)C2 [Compound 552, 2-[2-(4-cyclopentylpiperazin-1-yl)-2-oxoethyl]-6-(2-methoxyphenyl)-1,2,3,4-tetrahydroisoquinoline] | ≥ 90 |
| O=C(CN1CCc2cc(-c3ccc(F)cc3F)ccc2C1)N1CCN(C2CCCC2)CC1 [Compound 587, 2-[2-(4-cyclopentylpiperazin-1-yl)-2-oxoethyl]-6-(2,4-difluorophenyl)-1,2,3,4-tetrahydroisoquinoline] | ≥ 90 |
| COc1ccc(-c2ccc(-c3ccc4c(c3)CCN(CC(=O)N3CCN(C5CCCC5)CC3)C4)cc2)cc1 [Compound 499, 2-[2-(4-cyclopentylpiperazin-1-yl)-2-oxoethyl]-6-(4′-methoxybiphenyl-4-yl)-1,2,3,4-tetrahydroisoquinoline] | ≥ 90 |
| O=C(CN1CCc2cc(-c3ccc(F)c(Cl)c3)ccc2C1)N1CCN(C2CCC2)CC1 [Compound 579, 6-(3-chloro-4-fluorophenyl)-2-[2-(4-cyclobutylpiperazin-1-yl)-2-oxoethyl]-1,2,3,4-tetrahydroisoquinoline] | ≥ 90 |
| COc1ccc(F)cc1-c1ccc2c(c1)CCN(CC(=O)N1CCN(C3CCCC3)CC1)C2 [Compound 571, 2-[2-(4-cyclopentylpiperazin-1-yl)-2-oxoethyl]-6-(5-fluoro-2-methoxyphenyl)-1,2,3,4-tetrahydroisoquinoline] | ≥ 90 |
| CCCOc1ccc(-c2ccc3c(c2)CCN(CC(=O)N2CCN(C4CCCCC4)CC2)C3)cc1 [Compound 546, 2-[2-(4-cyclohexylpiperazin-1-yl)-2-oxoethyl]-6-(4-propoxyphenyl)-1,2,3,4-tetrahydroisoquinoline] | ≥ 90 |
| CC(C)OCCNc1ccc2c(n1)CCN(CC(=O)N1CCN(C3CCC3)CC1)C2 [Compound 668, 6-[2-(4-cyclobutylpiperazin-1-yl)-2-oxoethyl]-N-(2-isopropoxyethyl)-5,6,7,8-tetrahydro-1,6-naphthyridin-2-amine] | ≥ 90 |
| CCOc1cccc(-c2ccc3c(c2)CCN(CC(=O)N2CCN(C4CCCCC4)CC2)C3)c1 [Compound 484, 2-[2-(4-cyclohexylpiperazin-1-yl)-2-oxoethyl]-6-(3-ethoxyphenyl)-1,2,3,4-tetrahydroisoquinoline] | ≥ 90 |
| Cc1cc(F)ccc1-c1ccc2c(c1)CCN(CC(=O)N1CCN(C3CCC3)CC1)C2 [Compound 626, 2-[2-(4-cyclobutylpiperazin-1-yl)-2-oxoethyl]-6-(4-fluoro-2-methylphenyl)-1,2,3,4-tetrahydroisoquinoline] | ≥ 90 |
| COc1ccc(-c2ccc3c(c2)CCN(CC(=O)N2CCN(C4CCCCC4)CC2)C3)cc1 [Compound 522] | ≥ 90 |
